Test results published in US8952024B2, “Herbicidal pyrimidone derivatives” (E I du Pont de Nemours and Company, priority 2009, dated 2015).

Legend:
Assay type in all cases: in vivo
[1] = test system: barnyardgrass (Echinochloa crus-galli); assay: Test A pre-/postemergence plant response
Source text: (§1) Seeds of barnyardgrass (Echinochloa crus-galli), large crabgrass (Digitaria sanguinalis), giant foxtail (Setaria faberii), morningglory (Ipomoea spp.), pigweed (Amaranthus retroflexus), velvetleaf (Abutilon theophrasti), wheat (Triticum aestivum) and corn (Zea mays) were planted into a blend of loam soil and sand and treated preemergence with a directed soil spray using test chemicals formulated in a non-phytotoxic solvent mixture which included a surfactant. At the same time these species were also treated with postemergence applications of test compounds formulated in the same manner.
(§2) Plants ranged in height from two to ten cm and were in the one- to two-leaf stage for the postemergence treatment. Treated plants and untreated controls were maintained in a greenhouse for approximately ten days, after which time all treated plants were compared to untreated controls and visually evaluated for injury. Plant response ratings, summarized in Table A, are based on a 0 to 100 scale where 0 is no effect and 100 is complete control. A dash (-) response means no test result.

corn (Zea mays) = assay: Test A pre-/postemergence plant response
Source text: as §1, §2

[2] = test system: giant foxtail (Setaria faberii); assay: Test A pre-/postemergence plant response
Source text: as §1, §2

[3] = test system: large crabgrass (Digitaria sanguinalis); assay: Test A pre-/postemergence plant response
Source text: as §1, §2

[4] = test system: morningglory (Ipomoea spp.); assay: Test A pre-/postemergence plant response
Source text: as §1, §2

[5] = test system: pigweed (Amaranthus retroflexus); assay: Test A pre-/postemergence plant response
Source text: as §1, §2

[6] = test system: velvetleaf (Abutilon theophrasti); assay: Test A pre-/postemergence plant response
Source text: as §1, §2

[7] = test system: wheat (Triticum aestivum); assay: Test A pre-/postemergence plant response
Source text: as §1, §2

[8] = test system: barnyardgrass (Echinochloa crus-galli); assay: Test B flooded paddy test; settings: for Plant response rating, Flood, Barnyardgrass: 250 g ai/ha, flooded paddy test, visual rating on 0 to 100 scale (0 no effect, 100 complete control) after 13 to 15 days; for Plant response rating, Barnyardgrass: Flood (flooded paddy test), 13 to 15 days
Source text: (§3) Plant species in the flooded paddy test consisted of rice (Oryza sativa), umbrella sedge (Cyperus difformis), ducksalad (Heteranthera limosa) and barnyardgrass (Echinochloa crus-galli) grown to the 2-leaf stage for testing. At the time of treatment, test pots were flooded with water to 3 cm above the soil surface, treated by application of test compounds directly to the paddy water, and then maintained at that water depth for the duration of the test.
(§4) Treated plants and controls were maintained in a greenhouse for 13 to 15 days, after which time all treated plants were visually evaluated and compared to controls. Plant response ratings, summarized in Table B, are based on a scale of 0 to 100 where 0 is no effect and 100 is complete control. A dash (-) response means no test result.

[9] = test system: ducksalad (Heteranthera limosa); assay: Test B flooded paddy test; settings: for Plant response rating, Flood, Ducksalad: 250 g ai/ha, flooded paddy test, visual rating on 0 to 100 scale (0 no effect, 100 complete control) after 13 to 15 days; for Plant response rating, Ducksalad: Flood (flooded paddy test), 13 to 15 days
Source text: as §3, §4

rice (Oryza sativa) = assay: Test B flooded paddy test; settings: for Plant response rating, Flood, Rice: 250 g ai/ha, flooded paddy test, visual rating on 0 to 100 scale (0 no effect, 100 complete control) after 13 to 15 days; for Plant response rating, Rice: Flood (flooded paddy test), 13 to 15 days
Source text: as §3, §4

[10] = test system: umbrella sedge (Cyperus difformis); assay: Test B flooded paddy test; settings: for Plant response rating, Flood, Sedge, Umbrella: 250 g ai/ha, flooded paddy test, visual rating on 0 to 100 scale (0 no effect, 100 complete control) after 13 to 15 days; for Plant response rating, Sedge, Umbrella: Flood (flooded paddy test), 13 to 15 days
Source text: as §3, §4

[11] = Postemergence, 125 g ai/ha, 0 to 100 scale where 0 is no effect and 100 is complete control
[12] = Postemergence, 500 g ai/ha, 0 to 100 scale, 0 = no effect, 100 = complete control, approx. ten days
[13] = Preemergence, 125 g ai/ha, 0 to 100 scale, 0 = no effect, 100 = complete control
[14] = Preemergence, 500 g ai/ha, visual injury, 0 to 100 scale (0 no effect, 100 complete control), approx. ten days
[15] = 62 g ai/ha, scale of 0 to 100 where 0 is no effect and 100 is complete control
[16] = 125 g ai/ha, scale 0 to 100, 0 is no effect, 100 is complete control
[17] = Flood, 31 g ai/ha, scale 0 to 100 (0 no effect, 100 complete control)

O=C1CCCC(O)=C1C(=O)c1cnc(-c2ccco2)n(-c2ccccc2)c1=O [Compound 76]
100: Plant response rating, Crabgrass, Large [3, 14] | Plant response rating, Pigweed [5, 12] | Plant response rating, Pigweed [5, 14] | Plant response rating, Velvetleaf [6, 11] | Plant response rating, Velvetleaf [6, 12]
40: Plant response rating, Foxtail, Giant [2, 11]
70: Plant response rating, Foxtail, Giant [2, 12] | Plant response rating, Crabgrass, Large [3, 11] | Plant response rating, Velvetleaf [6, 14]
50: Plant response rating, Barnyardgrass [1, 11] | Plant response rating, Crabgrass, Large [3, 13] | Plant response rating, Morningglory [4, 14] | Plant response rating, Pigweed [5, 13]
80: Plant response rating, Barnyardgrass [1, 12]
90: Plant response rating, Crabgrass, Large [3, 12] | Plant response rating, Morningglory [4, 11] | Plant response rating, Morningglory [4, 12] | Plant response rating, Pigweed [5, 11]
10: Plant response rating, Wheat [7, 12]
30: Plant response rating, Barnyardgrass [1, 14] | Plant response rating, Foxtail, Giant [2, 14]
20: Plant response rating, Corn (corn (Zea mays); [12]) | Plant response rating, Velvetleaf [6, 13] | Plant response rating, Wheat [7, 14]
0: Plant response rating, Barnyardgrass [1, 13] | Plant response rating, Corn (corn (Zea mays); [11]) | Plant response rating, Corn (corn (Zea mays); [13]) | Plant response rating, Corn (corn (Zea mays); [14]) | Plant response rating, Foxtail, Giant [2, 13] | Plant response rating, Morningglory [4, 13] | Plant response rating, Wheat [7, 11] | Plant response rating, Wheat [7, 13] | Plant response rating, Flood, Barnyardgrass [8] | Plant response rating, Barnyardgrass [8, 15] | Plant response rating, Barnyardgrass [8, 16] | Barnyardgrass plant response rating [8, 17] | Plant response rating, Flood, Ducksalad [9] | Plant response rating, Ducksalad [9, 15] | Plant response rating, Ducksalad [9, 16] | Ducksalad plant response rating [9, 17] | Plant response rating, Flood, Rice (rice (Oryza sativa)) | Plant response rating, Rice (rice (Oryza sativa); [15]) | Plant response rating, Rice (rice (Oryza sativa); [16]) | Rice plant response rating (rice (Oryza sativa); [17]) | Plant response rating, Flood, Sedge, Umbrella [10] | Plant response rating, Sedge, Umbrella [10, 15] | Plant response rating, Sedge, Umbrella [10, 16] | Sedge, Umbrella plant response rating [10, 17]

CCCCCc1ncc(C(=O)C2=C(O)CCCC2=O)c(=O)n1-c1ccccc1 [Compound 78]
0: Plant response rating, Barnyardgrass [1, 13] | Plant response rating, Corn (corn (Zea mays); [11]) | Plant response rating, Corn (corn (Zea mays); [13]) | Plant response rating, Corn (corn (Zea mays); [14]) | Plant response rating, Foxtail, Giant [2, 13] | Plant response rating, Morningglory [4, 13] | Plant response rating, Morningglory [4, 14] | Plant response rating, Wheat [7, 11] | Plant response rating, Wheat [7, 12] | Plant response rating, Wheat [7, 13] | Plant response rating, Wheat [7, 14] | Plant response rating, Flood, Barnyardgrass [8] | Plant response rating, Barnyardgrass [8, 15] | Plant response rating, Ducksalad [9, 15] | Plant response rating, Rice (rice (Oryza sativa); [15])
50: Plant response rating, Barnyardgrass [1, 11] | Plant response rating, Foxtail, Giant [2, 12] | Plant response rating, Crabgrass, Large [3, 14] | Plant response rating, Pigweed [5, 13] | Plant response rating, Velvetleaf [6, 14]
10: Plant response rating, Foxtail, Giant [2, 14] | Plant response rating, Crabgrass, Large [3, 13]
100: Plant response rating, Morningglory [4, 12] | Plant response rating, Pigweed [5, 11] | Plant response rating, Pigweed [5, 12] | Plant response rating, Pigweed [5, 14] | Plant response rating, Velvetleaf [6, 11] | Plant response rating, Velvetleaf [6, 12]
40: Plant response rating, Flood, Sedge, Umbrella [10]
20: Plant response rating, Corn (corn (Zea mays); [12]) | Plant response rating, Foxtail, Giant [2, 11] | Plant response rating, Velvetleaf [6, 13] | Plant response rating, Flood, Ducksalad [9] | Plant response rating, Flood, Rice (rice (Oryza sativa))
30: Plant response rating, Barnyardgrass [1, 14] | Plant response rating, Crabgrass, Large [3, 11] | Plant response rating, Sedge, Umbrella [10, 15]
70: Plant response rating, Barnyardgrass [1, 12] | Plant response rating, Crabgrass, Large [3, 12] | Plant response rating, Morningglory [4, 11]
